What all share (assay type): functional
Experiment [1] has as its target Tyrosine-protein kinase JAK2 (Homo sapiens, UniProt O60674).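 Also: JAK2 tested as one member of a kinase panel.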
In experiment [2] the target is High affinity nerve growth factor receptor (Homo sapiens, UniProt P04629).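 Also: NTRK1 tested as one member of a kinome-wide profiling panel.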
The target of experiment [3] is T1, Mitogen-activated protein kinase kinase kinase kinase 2 (Homo sapiens, UniProt Q12851).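 Also: measured as one member of a kinome-wide kinase panel, with MAP4K2 as the panel entry.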
T1 sequence (Q12851 whole entry): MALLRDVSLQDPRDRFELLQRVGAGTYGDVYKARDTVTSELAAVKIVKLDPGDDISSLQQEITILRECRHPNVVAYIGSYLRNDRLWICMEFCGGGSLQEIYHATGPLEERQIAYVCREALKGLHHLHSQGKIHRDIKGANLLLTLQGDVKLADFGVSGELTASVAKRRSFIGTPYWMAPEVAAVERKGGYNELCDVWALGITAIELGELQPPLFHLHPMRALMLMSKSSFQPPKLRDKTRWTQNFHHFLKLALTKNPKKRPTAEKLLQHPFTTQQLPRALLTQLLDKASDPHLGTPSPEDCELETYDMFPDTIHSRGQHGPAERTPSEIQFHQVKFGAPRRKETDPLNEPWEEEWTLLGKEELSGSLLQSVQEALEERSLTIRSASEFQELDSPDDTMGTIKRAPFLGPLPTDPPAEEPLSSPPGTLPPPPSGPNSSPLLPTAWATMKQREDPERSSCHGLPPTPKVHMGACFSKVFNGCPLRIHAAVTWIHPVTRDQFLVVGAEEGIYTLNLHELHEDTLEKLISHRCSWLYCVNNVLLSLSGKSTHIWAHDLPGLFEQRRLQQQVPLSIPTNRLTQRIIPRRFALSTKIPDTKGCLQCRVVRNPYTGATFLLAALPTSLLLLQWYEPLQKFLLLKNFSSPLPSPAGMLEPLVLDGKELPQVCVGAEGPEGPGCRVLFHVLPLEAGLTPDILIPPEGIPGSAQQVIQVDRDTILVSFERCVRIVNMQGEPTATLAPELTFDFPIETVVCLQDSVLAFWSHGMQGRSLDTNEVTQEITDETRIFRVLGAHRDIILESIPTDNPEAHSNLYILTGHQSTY

Experiment [4] deals with T2, Receptor-type tyrosine-protein kinase FLT3 (Homo sapiens, UniProt P36888).
T2 sequence (P36888 whole entry): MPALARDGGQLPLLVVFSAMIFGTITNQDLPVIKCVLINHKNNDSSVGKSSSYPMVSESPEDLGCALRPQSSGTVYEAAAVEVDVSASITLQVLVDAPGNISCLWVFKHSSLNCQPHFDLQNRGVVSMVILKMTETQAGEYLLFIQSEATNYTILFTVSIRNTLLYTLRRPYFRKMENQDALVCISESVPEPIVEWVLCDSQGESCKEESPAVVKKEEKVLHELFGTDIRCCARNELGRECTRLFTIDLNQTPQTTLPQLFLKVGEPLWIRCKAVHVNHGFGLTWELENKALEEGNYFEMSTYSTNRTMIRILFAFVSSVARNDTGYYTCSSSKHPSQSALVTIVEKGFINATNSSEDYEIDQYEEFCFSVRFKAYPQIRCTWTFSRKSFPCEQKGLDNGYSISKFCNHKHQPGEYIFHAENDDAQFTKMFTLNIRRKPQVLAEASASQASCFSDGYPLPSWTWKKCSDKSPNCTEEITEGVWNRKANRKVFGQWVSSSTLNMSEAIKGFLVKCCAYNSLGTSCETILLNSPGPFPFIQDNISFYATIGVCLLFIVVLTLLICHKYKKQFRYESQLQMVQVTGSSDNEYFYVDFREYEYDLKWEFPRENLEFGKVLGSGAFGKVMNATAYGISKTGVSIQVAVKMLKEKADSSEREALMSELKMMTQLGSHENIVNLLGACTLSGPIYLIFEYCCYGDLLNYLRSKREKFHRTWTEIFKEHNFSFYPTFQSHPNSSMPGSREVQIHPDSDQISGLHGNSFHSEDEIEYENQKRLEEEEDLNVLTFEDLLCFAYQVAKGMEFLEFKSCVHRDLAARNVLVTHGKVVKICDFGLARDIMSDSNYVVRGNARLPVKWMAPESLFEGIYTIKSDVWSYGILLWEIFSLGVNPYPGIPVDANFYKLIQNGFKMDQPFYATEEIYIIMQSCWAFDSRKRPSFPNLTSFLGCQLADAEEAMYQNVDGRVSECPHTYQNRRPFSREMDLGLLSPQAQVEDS

Experiment [5] concerns the target Vascular endothelial growth factor receptor 2 (Homo sapiens, UniProt P35968).
Experiment [6] deals with Rho-associated protein kinase 1 (Homo sapiens, UniProt Q13464).
Experiment [7] deals with T3, Inhibitor of nuclear factor kappa-B kinase subunit epsilon (Homo sapiens, UniProt Q14164).
T3 sequence (Q14164 whole entry): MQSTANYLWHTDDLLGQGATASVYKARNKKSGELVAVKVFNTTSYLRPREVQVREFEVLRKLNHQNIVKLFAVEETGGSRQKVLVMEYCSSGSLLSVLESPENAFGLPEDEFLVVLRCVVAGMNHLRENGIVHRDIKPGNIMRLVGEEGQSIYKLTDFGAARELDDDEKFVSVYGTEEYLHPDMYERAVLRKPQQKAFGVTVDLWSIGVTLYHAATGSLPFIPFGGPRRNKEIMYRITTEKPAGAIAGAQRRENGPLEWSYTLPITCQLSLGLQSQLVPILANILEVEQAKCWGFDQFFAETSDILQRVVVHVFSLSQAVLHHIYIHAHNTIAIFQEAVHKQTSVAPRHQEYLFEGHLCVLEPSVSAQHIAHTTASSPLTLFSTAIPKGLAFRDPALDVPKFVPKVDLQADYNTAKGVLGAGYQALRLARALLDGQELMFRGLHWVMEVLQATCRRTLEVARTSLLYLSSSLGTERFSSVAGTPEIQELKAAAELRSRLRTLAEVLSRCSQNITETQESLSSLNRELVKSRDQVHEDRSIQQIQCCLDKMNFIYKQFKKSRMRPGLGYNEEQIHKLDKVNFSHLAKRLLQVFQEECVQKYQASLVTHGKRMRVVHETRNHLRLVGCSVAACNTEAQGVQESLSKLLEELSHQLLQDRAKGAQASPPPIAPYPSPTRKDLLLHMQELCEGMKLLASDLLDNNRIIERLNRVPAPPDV
Description: Navigating the Kinome. Panel member name: IKBKE.

Activity calls are given as the source filed them. No rule for the calls is given here. A value given as a limit tells only on which side of the number the result lay.

What is called Ki is a dissociation constant, usually derived from enzyme kinetics or from competition with a known ligand.

Sequence of Rho-associated protein kinase 1 (Q13464 whole entry): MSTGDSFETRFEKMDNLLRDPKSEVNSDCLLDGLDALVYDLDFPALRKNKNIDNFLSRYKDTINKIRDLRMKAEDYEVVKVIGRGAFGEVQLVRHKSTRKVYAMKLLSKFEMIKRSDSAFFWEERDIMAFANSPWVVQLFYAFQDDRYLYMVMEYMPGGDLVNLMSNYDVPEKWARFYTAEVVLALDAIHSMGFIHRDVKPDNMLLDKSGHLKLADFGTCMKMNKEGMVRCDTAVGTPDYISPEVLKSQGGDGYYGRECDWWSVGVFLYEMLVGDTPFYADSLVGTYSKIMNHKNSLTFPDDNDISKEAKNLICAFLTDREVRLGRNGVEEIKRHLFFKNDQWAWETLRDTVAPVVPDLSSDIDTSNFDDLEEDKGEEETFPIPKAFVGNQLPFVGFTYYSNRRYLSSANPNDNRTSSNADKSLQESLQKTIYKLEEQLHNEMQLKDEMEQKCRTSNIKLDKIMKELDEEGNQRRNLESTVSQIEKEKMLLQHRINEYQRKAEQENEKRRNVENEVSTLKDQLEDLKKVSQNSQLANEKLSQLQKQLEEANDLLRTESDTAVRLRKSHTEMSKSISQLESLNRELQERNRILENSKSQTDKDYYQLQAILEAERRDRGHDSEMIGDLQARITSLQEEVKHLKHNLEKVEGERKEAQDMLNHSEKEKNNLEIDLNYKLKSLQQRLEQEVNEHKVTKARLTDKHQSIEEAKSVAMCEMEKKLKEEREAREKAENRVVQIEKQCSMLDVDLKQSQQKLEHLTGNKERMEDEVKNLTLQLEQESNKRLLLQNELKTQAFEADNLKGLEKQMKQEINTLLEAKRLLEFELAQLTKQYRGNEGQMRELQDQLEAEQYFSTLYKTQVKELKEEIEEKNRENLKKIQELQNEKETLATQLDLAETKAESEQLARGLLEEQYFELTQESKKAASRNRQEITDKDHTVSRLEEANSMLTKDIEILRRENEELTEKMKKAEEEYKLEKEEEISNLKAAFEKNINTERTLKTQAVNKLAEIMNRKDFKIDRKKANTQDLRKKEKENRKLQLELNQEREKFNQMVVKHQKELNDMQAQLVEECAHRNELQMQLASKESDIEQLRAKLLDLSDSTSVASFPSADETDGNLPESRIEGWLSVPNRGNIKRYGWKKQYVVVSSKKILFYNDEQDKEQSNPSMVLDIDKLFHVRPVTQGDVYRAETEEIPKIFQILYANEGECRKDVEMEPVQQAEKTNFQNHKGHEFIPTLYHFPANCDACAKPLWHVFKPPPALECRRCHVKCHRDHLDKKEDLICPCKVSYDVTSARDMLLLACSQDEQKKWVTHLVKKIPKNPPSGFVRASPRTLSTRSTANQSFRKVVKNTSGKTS
Sequence of Vascular endothelial growth factor receptor 2 (P35968 whole entry): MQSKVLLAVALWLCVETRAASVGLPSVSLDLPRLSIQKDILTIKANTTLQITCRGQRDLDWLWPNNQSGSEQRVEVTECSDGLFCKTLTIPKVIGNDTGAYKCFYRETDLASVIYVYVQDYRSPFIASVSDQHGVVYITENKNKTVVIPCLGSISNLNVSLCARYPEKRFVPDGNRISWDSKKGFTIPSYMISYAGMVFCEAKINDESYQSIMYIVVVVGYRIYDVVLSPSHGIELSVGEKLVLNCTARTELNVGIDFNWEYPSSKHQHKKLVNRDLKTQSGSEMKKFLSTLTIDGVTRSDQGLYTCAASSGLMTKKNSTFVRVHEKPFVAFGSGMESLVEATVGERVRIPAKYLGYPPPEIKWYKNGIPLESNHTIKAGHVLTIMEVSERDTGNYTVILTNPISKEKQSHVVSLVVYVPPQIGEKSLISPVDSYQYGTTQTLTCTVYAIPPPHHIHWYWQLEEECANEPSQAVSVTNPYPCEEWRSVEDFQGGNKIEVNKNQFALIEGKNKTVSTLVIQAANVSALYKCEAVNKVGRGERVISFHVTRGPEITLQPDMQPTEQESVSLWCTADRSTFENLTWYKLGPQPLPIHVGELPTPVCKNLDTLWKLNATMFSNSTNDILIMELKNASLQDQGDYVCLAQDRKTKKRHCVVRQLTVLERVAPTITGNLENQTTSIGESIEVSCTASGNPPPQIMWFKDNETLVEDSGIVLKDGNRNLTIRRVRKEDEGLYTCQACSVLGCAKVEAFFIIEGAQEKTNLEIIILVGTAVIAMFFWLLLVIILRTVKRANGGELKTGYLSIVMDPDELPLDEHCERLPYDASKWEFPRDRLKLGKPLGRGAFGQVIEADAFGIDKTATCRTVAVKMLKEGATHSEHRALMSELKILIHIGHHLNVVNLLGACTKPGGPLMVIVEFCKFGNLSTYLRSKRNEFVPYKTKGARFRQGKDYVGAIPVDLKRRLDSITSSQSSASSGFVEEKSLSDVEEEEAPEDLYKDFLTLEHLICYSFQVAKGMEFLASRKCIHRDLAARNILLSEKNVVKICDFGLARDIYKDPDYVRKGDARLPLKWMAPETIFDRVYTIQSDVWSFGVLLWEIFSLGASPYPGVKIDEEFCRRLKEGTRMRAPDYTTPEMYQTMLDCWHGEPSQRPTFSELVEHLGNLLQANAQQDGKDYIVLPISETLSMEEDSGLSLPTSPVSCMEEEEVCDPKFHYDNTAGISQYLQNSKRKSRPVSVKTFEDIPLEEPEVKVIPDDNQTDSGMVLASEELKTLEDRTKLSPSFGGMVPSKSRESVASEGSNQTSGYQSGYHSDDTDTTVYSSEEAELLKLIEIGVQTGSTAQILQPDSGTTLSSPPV
Sequence of Tyrosine-protein kinase JAK2 (O60674 whole entry): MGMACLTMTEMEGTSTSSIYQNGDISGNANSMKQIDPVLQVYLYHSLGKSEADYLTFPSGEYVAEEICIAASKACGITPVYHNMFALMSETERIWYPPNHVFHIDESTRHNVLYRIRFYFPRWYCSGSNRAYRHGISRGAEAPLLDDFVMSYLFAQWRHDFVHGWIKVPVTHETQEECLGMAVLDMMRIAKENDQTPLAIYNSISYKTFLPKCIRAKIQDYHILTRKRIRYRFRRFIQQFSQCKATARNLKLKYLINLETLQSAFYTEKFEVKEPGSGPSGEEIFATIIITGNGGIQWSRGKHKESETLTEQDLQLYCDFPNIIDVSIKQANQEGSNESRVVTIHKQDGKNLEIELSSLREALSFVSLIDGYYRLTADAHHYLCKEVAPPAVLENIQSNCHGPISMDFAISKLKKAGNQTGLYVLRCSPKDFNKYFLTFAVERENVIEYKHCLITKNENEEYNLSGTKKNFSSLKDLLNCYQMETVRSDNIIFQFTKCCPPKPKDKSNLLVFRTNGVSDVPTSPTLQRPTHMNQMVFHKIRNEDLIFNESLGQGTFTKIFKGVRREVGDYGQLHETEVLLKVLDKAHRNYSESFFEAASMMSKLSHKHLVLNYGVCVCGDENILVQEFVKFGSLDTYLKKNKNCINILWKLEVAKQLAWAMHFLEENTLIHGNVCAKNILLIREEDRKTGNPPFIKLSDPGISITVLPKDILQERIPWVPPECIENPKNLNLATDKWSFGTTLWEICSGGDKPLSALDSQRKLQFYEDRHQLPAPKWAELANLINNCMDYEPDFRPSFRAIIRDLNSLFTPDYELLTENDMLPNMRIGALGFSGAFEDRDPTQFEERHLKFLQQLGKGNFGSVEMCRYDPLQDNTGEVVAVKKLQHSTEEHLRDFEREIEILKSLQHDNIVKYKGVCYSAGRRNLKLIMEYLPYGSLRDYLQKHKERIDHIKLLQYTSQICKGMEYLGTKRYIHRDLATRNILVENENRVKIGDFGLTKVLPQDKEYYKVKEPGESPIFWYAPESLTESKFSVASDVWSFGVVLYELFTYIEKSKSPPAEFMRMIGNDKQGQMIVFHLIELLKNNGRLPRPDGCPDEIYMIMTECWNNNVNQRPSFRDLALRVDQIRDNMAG
Sequence of High affinity nerve growth factor receptor (P04629 whole entry): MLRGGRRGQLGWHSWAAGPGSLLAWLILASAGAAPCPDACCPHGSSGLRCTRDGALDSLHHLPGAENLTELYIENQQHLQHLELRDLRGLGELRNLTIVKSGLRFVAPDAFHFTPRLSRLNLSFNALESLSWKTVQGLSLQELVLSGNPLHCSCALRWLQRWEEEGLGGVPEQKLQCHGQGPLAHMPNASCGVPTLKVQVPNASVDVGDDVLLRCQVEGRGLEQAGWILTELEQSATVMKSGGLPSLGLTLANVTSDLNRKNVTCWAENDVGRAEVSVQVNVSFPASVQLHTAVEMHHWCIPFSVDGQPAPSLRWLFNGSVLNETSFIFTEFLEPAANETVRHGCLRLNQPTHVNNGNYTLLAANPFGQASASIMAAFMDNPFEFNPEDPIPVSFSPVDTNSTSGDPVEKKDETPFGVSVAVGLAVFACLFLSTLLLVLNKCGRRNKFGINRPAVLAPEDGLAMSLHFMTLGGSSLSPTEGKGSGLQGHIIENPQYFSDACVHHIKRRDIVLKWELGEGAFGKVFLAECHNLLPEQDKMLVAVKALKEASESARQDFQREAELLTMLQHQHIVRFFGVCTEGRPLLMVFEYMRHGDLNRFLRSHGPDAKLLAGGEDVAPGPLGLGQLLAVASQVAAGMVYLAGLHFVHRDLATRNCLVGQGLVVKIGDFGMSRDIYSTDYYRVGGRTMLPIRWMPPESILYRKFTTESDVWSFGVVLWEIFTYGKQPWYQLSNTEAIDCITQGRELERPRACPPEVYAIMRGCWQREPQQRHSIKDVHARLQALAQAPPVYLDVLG

With `COc1cccc(C(C)NC(=O)c2sc(-c3ccncc3)nc2C)c1` (stereo unspecified), the Ki in experiment [1] is > 2510 nM (inactive); in experiment [2], > 3160 nM (inactive); in experiment [3], > 2510 nM (inactive); in experiment [4] it was > 3160 nM (inactive); in experiment [5], > 2510 nM (inactive); in experiment [6] it was 31.6 nM (active). Moreover, in experiment [7], the Ki was > 3160 nM (inactive).

`CCCCC(=O)Nc1cc(-c2c[nH]c3ncccc23)cc(Cl)n1`: the Ki in experiment [1] was > 2510 nM (inactive); in experiment [2], > 3160 nM (inactive); in experiment [3] it was > 2510 nM (inactive); in experiment [4] it was > 2510 nM (inactive); in experiment [5], > 2510 nM (inactive); in experiment [6], > 31.6 nM (inactive). Moreover, in experiment [7], the Ki is > 3160 nM (inactive).

In the case of `Oc1ccc(-c2nc(-c3ccncc3)c(-c3ccc(F)cc3)[nH]2)cc1` [SB-202190], the Ki was > 2510 nM (inactive) in experiment [1]; > 3160 nM (inactive) in experiment [2]; > 2510 nM (inactive) in experiment [3]; > 2510 nM (inactive) in experiment [4]; > 2000 nM (inactive) in experiment [5]; > 3980 nM (inactive) in experiment [6]. Further, the Ki in experiment [7] was > 3160 nM (inactive).

These data come from ChEMBL document CHEMBL1201862, “PubChem BioAssay data set” (2004).
